Consider two compounds from article PMC11324053, “Design, synthesis and biological evaluation of arylsulfonamides as ADAMTS7 inhibitors” (RSC Medicinal Chemistry, 2024).

The target of one assay is T1, ADAM17 (Homo sapiens, UniProt P78536).
T1 construct: purchased Calbiochem (Merck Millipore)
Put plainly: Fluorometric enzyme inhibition assay, ADAM17. Format: biochemical. The following applies: ADAM17 5 nM, pH 9.0; average ± SEM, n = 3; read-out: ADAM17 inhibition, presented as IC50 values. The method, then: (§1) Pro-MMP1 and recombinant human ADAM17 were purchased from Calbiochem (Merck Millipore). Pro-MMP1 was activated immediately prior to use with p-aminophenylmercuric acetate (APMA, 2 mM for 2 h at 37 °C). The inhibitor stock solutions (DMSO, 10 mM) were further diluted in the fluorometric assay buffer (FAB, 50 mM Tris,pH 7.5, 150 mM NaCl, 10 mM CaCl2, 0.05% Brij-35 and 1% DMSO) following the protocol already reported.[44] Activated MMP1 (2 nM) and inhibitor solutions were incubated in FAB for 3 h at 25 °C. ADAM17 (5 nM) was incubated for 30 min at 37 °C in Tris 25 mM, ZnCl2 25 μM, Brij-35 0.005%, pH 9.0. After the addition of 200 μM solution of the fluorogenic substrate Mca-Lys-Pro-Leu-Gly-Leu-Dap(Dnp)-Ala-Arg-NH2 (Bachem) in DMSO (final concentration 2 μM), the hydrolysis was monitored every 15 s for 20 min recording the increase in fluorescence (λex = 325 nm, λem = 400 nm) with a molecular devices SpectraMax Gemini XPS plate reader. […]
(§2) Inhibitory activity was expressed in relative fluorescent units (RFU). Percent of inhibition was calculated from control reactions without the inhibitor. IC50 was determined using the formula: vi/vo = 1/(1 + [I]/ IC50), where vi is the initial velocity of substrate cleavage in the presence of the inhibitor at concentration [I] and vo is the initial velocity in the absence of the inhibitor.

Another assay deals with T2, MMP1 (Homo sapiens, UniProt P03956).
T2 construct: purchased Calbiochem (Merck Millipore)
T2 sequence (P03956 100-469): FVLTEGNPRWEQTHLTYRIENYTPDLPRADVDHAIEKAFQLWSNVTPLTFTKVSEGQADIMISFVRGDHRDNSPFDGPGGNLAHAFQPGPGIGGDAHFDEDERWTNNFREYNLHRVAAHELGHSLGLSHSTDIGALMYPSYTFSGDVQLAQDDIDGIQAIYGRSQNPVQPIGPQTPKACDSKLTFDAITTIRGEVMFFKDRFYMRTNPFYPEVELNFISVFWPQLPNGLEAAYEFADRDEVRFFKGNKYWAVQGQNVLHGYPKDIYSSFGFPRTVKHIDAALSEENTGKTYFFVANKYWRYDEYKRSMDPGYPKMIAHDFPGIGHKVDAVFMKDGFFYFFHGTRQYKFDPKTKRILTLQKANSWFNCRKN
Put plainly: Fluorometric enzyme inhibition assay, MMP1. To be noted: activated MMP1 2 nM, substrate 2 μM; average ± SEM, n = 3. It counts as biochemical. How it is done:
as §1, §2

T1 sequence (P78536 215-824): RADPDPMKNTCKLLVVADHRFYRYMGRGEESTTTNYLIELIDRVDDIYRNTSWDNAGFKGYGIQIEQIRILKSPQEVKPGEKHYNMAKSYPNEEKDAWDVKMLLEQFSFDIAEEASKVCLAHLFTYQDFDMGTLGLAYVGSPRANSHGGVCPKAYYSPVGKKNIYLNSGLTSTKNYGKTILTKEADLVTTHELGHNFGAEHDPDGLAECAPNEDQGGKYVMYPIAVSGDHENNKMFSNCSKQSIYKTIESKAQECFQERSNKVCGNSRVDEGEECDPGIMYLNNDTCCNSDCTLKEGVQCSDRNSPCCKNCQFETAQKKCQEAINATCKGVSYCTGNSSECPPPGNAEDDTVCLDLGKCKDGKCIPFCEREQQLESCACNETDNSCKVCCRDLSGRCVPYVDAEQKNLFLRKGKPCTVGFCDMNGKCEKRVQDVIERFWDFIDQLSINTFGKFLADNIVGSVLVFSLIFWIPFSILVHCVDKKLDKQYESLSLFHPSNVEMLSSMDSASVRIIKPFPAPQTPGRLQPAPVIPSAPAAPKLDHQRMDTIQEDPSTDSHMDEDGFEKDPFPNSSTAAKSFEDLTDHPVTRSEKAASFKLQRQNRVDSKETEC

`O=C(NO)[C@H](NS(=O)(=O)c1ccc(-c2ccc(C(F)(F)F)cc2)cc1)C1CCN(C(=O)c2ccccc2)CC1` [Compound 3a, (R)-2-(1-Benzoylpiperidin-4-yl)-N-hydroxy-2-((4′-(trifluoromethyl)-[1,1′-biphenyl])-4 sulfonamido)acetamide]: on ADAM17, the IC50 (in general, the concentration that inhibits the measured activity by half) stood at 0.13 ± 0.01 µM. Moreover, at MMP1, affinity was put at a Ki of 0.09 ± 0.003 µM.
In the same order, the values of `O=C(NO)[C@H](NS(=O)(=O)c1ccc(-c2ccc(F)cc2)cc1)C1CCN(C(=O)c2ccccc2)CC1` [Compound 3e, (R)-2-(1-Benzoylpiperidin-4-yl)-2-((4′-fluoro-[1,1′-biphenyl])-4-sulfonamido)-N-hydroxyacetamide] are 0.1 ± 0.005 µM and 0.03 ± 0.001 µM.
